Consider 2 compounds from BindingDB's records for doi:10.1038/sj.npp.1300819 (Case Western Reserve University, 2006).

Among the targets are D(1B) dopamine receptor (Homo sapiens, UniProt P21918); D(4) dopamine receptor (Homo sapiens, UniProt P21917); D(1A) dopamine receptor (Homo sapiens, UniProt P21728); Histamine H1 receptor (Homo sapiens, UniProt P35367); D(3) dopamine receptor (Rattus norvegicus, UniProt P19020).
The target of assay [1] is Alpha-2A adrenergic receptor (Homo sapiens, UniProt P08913).
Assay [2] deals with 5-hydroxytryptamine receptor 2C (Rattus norvegicus, UniProt P08909).
Assay [3] concerns the target 5-hydroxytryptamine receptor 6 (Homo sapiens, UniProt P50406).
Assay [4] deals with Sodium-dependent serotonin transporter (Homo sapiens, UniProt P31645).
Assay [5] has as its target 5-hydroxytryptamine receptor 1A (Homo sapiens, UniProt P08908).
The target of assay [6] is 5-hydroxytryptamine receptor 2A (Rattus norvegicus, UniProt P14842).
In assay [7] the target is Sodium-dependent noradrenaline transporter (Homo sapiens, UniProt P23975).
Assay [8] concerns the target 5-hydroxytryptamine receptor 1B (Rattus norvegicus, UniProt P28564).
For assay [9], the target named is Alpha-1A adrenergic receptor (Homo sapiens, UniProt P35348).
The target of assay [10] is Sodium-dependent dopamine transporter (Homo sapiens, UniProt Q01959).
Assay [11] deals with 5-hydroxytryptamine receptor 2B (Homo sapiens, UniProt P41595).
The target in assay [12] is Alpha-2C adrenergic receptor (Homo sapiens, UniProt P18825).
In assay [13] the target is Alpha-1B adrenergic receptor (Homo sapiens, UniProt P35368).
For assay [14], the target named is Muscarinic acetylcholine receptor M3 (Homo sapiens, UniProt P20309).
Assay [15] has as its target Muscarinic acetylcholine receptor M1 (Homo sapiens, UniProt P11229).
In assay [16] the target is 5-hydroxytryptamine receptor 5A (Homo sapiens, UniProt P47898).
Assay [17] concerns the target Muscarinic acetylcholine receptor M4 (Homo sapiens, UniProt P08173).
Assay [18] addresses Muscarinic acetylcholine receptor M2 (Homo sapiens, UniProt P08172).
Assay [19] has as its target Muscarinic acetylcholine receptor M5 (Homo sapiens, UniProt P08912).

Sodium-dependent noradrenaline transporter, sequence (P23975 whole entry): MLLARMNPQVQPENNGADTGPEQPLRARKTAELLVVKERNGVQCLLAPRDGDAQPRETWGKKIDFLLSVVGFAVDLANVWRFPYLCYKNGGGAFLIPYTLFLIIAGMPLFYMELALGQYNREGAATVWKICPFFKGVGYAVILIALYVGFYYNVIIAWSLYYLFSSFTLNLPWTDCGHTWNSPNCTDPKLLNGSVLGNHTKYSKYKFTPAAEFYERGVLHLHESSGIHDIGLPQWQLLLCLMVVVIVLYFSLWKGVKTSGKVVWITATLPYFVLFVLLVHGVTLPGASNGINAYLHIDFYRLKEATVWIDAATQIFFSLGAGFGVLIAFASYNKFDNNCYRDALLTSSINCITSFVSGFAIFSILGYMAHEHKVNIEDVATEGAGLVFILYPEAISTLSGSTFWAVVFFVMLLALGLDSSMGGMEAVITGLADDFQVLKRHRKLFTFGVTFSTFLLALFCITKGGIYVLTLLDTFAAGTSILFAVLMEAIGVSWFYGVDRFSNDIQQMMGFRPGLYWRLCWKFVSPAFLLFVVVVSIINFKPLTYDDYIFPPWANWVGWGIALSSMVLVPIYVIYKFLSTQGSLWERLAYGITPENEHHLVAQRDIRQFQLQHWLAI
Alpha-2C adrenergic receptor, sequence (P18825 whole entry): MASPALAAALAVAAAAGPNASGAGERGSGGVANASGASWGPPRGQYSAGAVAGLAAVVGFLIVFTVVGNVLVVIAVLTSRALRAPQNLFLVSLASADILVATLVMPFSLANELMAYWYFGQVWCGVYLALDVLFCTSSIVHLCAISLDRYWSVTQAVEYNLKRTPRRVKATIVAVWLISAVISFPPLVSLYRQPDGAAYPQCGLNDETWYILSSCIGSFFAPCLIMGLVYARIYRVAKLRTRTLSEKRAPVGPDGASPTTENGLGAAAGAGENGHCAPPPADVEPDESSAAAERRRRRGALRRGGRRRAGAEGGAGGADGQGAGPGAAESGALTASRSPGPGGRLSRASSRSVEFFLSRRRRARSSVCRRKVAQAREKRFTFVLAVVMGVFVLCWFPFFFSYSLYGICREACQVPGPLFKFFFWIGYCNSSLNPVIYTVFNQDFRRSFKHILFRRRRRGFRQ
5-hydroxytryptamine receptor 2C, sequence (P08909 whole entry): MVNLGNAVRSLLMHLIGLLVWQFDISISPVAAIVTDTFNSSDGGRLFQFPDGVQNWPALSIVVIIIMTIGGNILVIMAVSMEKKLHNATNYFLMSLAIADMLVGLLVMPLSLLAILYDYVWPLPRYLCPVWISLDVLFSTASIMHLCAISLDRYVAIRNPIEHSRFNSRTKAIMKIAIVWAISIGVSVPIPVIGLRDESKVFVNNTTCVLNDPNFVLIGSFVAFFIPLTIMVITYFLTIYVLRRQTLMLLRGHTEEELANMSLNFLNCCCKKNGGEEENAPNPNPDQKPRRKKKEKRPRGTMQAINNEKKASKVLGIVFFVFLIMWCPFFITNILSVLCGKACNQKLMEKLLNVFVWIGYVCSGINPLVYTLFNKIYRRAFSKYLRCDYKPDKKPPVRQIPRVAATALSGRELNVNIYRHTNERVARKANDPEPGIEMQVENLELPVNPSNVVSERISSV
5-hydroxytryptamine receptor 1A, sequence (P08908 whole entry): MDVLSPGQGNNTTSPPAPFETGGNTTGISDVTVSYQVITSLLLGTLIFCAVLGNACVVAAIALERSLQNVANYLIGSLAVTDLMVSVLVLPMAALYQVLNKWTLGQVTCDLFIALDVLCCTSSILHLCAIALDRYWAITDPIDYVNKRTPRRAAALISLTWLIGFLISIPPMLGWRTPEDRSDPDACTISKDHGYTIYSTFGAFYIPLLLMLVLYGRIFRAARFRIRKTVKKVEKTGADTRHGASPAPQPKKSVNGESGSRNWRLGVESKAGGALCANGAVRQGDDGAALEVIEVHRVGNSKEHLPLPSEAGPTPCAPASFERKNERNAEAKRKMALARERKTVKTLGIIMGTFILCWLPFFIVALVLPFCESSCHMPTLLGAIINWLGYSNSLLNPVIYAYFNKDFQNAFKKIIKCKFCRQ
Alpha-2A adrenergic receptor, sequence (P08913 whole entry): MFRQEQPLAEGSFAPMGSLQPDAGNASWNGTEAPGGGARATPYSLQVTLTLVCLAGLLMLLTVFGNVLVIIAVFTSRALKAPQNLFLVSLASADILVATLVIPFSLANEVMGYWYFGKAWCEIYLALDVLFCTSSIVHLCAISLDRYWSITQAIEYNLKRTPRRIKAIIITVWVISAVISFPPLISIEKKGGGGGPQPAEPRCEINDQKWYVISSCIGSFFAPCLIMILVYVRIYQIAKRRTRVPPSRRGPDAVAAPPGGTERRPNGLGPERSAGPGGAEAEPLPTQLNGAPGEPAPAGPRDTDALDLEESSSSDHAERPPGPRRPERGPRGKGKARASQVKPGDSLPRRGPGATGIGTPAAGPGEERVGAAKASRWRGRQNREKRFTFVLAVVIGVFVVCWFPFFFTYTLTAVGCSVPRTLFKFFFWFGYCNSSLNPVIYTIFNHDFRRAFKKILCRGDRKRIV
5-hydroxytryptamine receptor 1B, sequence (P28564 whole entry): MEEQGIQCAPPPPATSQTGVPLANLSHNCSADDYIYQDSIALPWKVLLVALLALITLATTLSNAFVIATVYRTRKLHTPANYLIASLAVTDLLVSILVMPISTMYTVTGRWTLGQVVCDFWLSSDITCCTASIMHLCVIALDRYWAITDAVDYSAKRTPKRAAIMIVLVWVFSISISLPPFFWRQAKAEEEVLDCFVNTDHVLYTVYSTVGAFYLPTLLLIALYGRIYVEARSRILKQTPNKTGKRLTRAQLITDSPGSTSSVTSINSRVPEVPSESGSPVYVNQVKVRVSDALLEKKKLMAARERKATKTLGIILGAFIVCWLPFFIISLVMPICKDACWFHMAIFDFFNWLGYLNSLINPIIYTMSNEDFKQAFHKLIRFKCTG
5-hydroxytryptamine receptor 2A, sequence (P14842 whole entry): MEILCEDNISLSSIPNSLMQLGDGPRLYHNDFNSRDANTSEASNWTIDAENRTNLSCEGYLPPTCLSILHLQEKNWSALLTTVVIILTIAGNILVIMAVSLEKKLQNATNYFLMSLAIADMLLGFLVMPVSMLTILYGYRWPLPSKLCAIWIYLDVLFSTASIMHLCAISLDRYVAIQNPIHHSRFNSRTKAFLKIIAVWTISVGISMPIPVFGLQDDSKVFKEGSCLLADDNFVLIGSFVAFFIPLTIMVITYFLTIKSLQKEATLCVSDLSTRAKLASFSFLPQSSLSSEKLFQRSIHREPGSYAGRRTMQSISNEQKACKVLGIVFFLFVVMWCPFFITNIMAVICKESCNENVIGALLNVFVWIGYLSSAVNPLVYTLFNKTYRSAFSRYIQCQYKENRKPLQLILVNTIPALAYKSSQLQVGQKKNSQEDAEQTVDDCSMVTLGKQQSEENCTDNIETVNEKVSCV
Sodium-dependent dopamine transporter, sequence (Q01959 whole entry): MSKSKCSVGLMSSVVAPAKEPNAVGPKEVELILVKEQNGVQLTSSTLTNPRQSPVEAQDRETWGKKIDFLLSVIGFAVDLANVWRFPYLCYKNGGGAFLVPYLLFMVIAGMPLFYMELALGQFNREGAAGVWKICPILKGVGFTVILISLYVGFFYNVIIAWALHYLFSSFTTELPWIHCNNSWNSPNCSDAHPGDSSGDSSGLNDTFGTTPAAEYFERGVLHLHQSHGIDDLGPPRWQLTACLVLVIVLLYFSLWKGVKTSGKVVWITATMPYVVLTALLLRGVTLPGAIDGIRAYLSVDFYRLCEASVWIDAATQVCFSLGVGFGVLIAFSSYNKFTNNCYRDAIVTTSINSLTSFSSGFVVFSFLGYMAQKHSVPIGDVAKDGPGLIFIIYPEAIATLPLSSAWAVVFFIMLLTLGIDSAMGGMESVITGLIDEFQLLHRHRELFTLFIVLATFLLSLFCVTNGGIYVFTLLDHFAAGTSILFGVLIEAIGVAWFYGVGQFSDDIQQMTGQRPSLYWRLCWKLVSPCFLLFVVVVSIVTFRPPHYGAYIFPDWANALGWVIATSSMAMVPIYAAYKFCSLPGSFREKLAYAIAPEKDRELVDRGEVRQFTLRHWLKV
D(1A) dopamine receptor, sequence (P21728 whole entry): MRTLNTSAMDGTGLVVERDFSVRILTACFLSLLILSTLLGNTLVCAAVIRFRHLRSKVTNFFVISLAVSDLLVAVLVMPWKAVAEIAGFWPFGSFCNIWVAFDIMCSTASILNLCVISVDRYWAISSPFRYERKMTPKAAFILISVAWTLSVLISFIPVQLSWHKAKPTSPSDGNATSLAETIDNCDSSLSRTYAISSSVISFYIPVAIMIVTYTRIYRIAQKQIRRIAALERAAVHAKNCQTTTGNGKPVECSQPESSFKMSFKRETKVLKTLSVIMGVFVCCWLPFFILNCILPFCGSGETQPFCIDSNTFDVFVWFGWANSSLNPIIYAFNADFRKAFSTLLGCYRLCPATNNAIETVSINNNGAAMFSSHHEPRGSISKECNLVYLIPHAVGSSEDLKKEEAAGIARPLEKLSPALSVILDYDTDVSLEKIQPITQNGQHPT
5-hydroxytryptamine receptor 6, sequence (P50406 whole entry): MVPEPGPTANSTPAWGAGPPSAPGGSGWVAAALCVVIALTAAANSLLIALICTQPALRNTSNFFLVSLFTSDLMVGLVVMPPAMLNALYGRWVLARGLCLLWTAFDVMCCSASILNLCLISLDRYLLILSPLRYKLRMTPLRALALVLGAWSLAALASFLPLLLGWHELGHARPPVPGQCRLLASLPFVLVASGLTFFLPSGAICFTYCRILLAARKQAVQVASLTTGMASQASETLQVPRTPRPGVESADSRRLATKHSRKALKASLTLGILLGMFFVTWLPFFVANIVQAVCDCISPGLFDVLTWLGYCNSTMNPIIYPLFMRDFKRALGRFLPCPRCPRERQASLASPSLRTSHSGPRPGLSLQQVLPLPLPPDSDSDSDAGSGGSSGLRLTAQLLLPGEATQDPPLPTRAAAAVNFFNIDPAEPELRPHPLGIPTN

As to `OC(c1ccccc1)C1CCN(CCc2ccccc2)CC1` (centres undefined) [MDL-11939], the inhibition constant Ki worked out at 1.59 µM in assay [1]; 0.854 µM in assay [2]; 2.75 µM in [3]; 2.6 µM in assay [4]; 3.42 µM in assay [5]; 2.87 µM on D(1B) dopamine receptor. For the same compound, the inhibition constant (Ki) in [6] is 0.00289 µM; in assay [7], greater than 10 µM; in [8], 0.0705 µM; on D(4) dopamine receptor it was 3.93 µM; in assay [9], 1.88 µM; in [10] it was greater than 10 µM. Further, the Ki came out at 1.42 µM in assay [11]; 1.19 µM in [12]; 0.327 µM at D(1A) dopamine receptor; 1.58 µM in assay [13]; 1.6 µM on Histamine H1 receptor.

As for `CN(C)CCON=C(C=Cc1ccc(O)cc1)c1ccccc1F` [NSC_6438382], the Ki in assay [1] amounted to 0.726 µM; in assay [2] it was 0.00824 µM; in assay [3] it was 3.87 µM; in [5], 2.5 µM; in assay [14] it was 2.39 µM; in assay [6], 0.000951 µM. In addition, the inhibitory constant (Ki) in [7] was determined as 0.739 µM; in [15] it was 0.733 µM; in [8], 0.914 µM; in [16], 1.75 µM; in assay [10], 5.62 µM; in assay [17] it was 3.67 µM. Besides, the Ki is 2.12 µM in assay [12]; greater than 10 µM in assay [18]; 3.01 µM in [19]; greater than 10 µM on D(3) dopamine receptor; greater than 10 µM on D(1A) dopamine receptor.

One may read the Ki as the equilibrium dissociation constant of an inhibitor or competing ligand from its target. The low end stands for a stronger hold on the target, the high end for a looser hold on the target.
